Data published in patent US20240217967A1, “INDOLINE DERIVATIVES AS DDRS INHIBITORS” (CHIESI FARMACEUTICI S.P.A., priority 2021, published 2024).

Experiments:
DDR2 [1] = molecular target: T1, DDR2 (Homo sapiens, UniProt Q16832); experiment: DDR2 cell based assay (phospho-ELISA in HEK293T-DDR2 recombinant cells, collagen II stimulation); settings: bovine Type II Collagen stimulation
T1 sequence (Q16832 22-855): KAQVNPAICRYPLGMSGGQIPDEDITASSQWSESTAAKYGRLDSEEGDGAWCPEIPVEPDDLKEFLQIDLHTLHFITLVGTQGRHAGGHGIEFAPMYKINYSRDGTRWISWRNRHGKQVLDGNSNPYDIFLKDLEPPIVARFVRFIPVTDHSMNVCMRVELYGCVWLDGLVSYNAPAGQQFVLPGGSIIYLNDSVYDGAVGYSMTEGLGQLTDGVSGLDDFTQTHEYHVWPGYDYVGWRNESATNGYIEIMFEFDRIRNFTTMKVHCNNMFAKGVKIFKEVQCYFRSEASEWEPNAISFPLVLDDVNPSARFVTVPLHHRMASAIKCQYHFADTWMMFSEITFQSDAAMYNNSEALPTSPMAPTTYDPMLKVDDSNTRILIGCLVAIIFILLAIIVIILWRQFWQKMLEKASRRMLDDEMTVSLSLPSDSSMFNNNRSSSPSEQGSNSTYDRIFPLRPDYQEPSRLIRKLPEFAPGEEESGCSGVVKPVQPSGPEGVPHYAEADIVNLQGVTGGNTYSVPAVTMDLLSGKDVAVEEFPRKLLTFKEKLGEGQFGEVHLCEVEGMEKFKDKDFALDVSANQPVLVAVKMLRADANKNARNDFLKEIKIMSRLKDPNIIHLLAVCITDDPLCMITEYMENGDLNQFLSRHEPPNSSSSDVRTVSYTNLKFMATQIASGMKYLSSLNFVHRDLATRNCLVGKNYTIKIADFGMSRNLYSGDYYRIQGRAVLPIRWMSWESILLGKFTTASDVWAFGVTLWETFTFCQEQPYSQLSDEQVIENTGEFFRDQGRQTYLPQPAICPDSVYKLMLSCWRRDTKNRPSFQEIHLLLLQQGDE
Procedure: The inhibition of DDR2 phosphorylation by compounds was evaluated in HEK293T-DDR2 recombinant cells by phospho-ELISA assay. Briefly, HEK293T-DDR2 cells were seeded in poly-D-lysine-coated 24-well plates at a density of 250.000 cells/well and incubated for 1.5 hours at 37° C. and 5% CO2 in DMEM+10% FBS. After that, the medium was changed to serum-free DMEM and cells were incubated for 3 hours. Then. test compounds were added at different concentrations 30 minutes before stimulation with bovine Type II Collagen at 50 μg/ml for further 3 hours. For DDR2 phospho-ELISA assay (DuoSet IC Human Phospho-DDR2; R&D Systems), protein extracts were obtained by adding 60 μl/well of lysis buffer prepared according to the manufacturer's instructions. Protein concentration in the samples was determined by BCA assay and the levels of phospho-DDR2 were determined following R&D Systems indications. Raw data were normalized to maximal inhibition control (0% for normalization) and positive control (100% for normalization; cells treated with […] collagen II) and IC50 parameters were calculated in GraphPad Prism 8.0 software, using sigmoidal dose-response curve fitting with variable slope.

DDR2 [2] = molecular target: T1, DDR2; experiment: DDR2 LanthaScreen Europium Kinase Binding assay; settings: binding affinity; IC50 converted in Ki using Cheng-Prusoff; read-out: Ki DDR2
How it was run: (§1)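 Binding by TR-FRET tracer displacement: compounds incubated 1 h at room temperature with 5 nM DDR1 plus 20 nM Kinase Tracer 178, or 5 nM DDR2 plus 10 nM tracer, and 2 nM Eu anti-GST antibody in pH 7.5 HEPES/MgCl2/EGTA/BRIJ35 buffer. 665/615 nm ratio gave four-parameter IC50, converted to Ki via Cheng-Prusoff.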

DDR1 [3] = molecular target: T2, DDR1 (Homo sapiens, UniProt Q08345); experiment: DDR1 cell based assay (PathHunter U2OS DDR1, collagen II stimulation); settings: U2OS-DDR1 cells, bovine Type II Collagen stimulation
T2 sequence (Q08345 19-913): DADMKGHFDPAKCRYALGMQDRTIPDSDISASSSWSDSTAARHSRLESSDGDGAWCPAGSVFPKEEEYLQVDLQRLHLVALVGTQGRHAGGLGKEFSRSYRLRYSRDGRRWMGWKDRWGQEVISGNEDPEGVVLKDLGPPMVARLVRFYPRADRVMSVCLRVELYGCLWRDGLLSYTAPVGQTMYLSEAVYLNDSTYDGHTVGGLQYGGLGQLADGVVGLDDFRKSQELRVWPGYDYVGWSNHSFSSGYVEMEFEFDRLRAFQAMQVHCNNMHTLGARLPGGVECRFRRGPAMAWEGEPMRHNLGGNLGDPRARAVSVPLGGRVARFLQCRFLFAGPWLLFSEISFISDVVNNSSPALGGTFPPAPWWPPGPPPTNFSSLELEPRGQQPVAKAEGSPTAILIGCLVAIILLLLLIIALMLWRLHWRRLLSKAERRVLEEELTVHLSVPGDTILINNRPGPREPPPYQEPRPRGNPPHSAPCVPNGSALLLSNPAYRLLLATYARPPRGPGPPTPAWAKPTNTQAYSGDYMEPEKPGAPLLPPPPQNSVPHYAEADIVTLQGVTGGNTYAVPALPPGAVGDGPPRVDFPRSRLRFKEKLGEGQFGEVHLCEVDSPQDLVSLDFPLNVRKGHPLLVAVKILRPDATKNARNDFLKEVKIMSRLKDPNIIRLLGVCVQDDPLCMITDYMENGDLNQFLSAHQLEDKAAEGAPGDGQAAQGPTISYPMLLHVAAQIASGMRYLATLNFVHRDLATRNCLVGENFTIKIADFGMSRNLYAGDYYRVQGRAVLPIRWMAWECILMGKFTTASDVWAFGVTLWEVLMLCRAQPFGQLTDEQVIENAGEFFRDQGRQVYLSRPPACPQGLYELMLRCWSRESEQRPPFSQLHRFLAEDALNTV
How it was run: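 U2OS-DDR1 PathHunter cells preincubated 30 min with compound, then stimulated overnight at 37 °C with 20 μg/ml bovine type II collagen. Luminescent complementation signal read after 1 h detection at room temperature; normalized to vehicle (0%) and collagen-only (100%) controls, IC50 from variable-slope sigmoidal fit.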

DDR1 [4] = molecular target: T2, DDR1; experiment: DDR1 LanthaScreen Europium Kinase Binding assay; settings: binding affinity; IC50 converted in Ki using Cheng-Prusoff; read-out: Ki DDR1
How it was run: as §1

SMILES | IC50 (DDR2 [1]) [nM] | Ki (DDR2 [2]) [nM] | IC50 (DDR1 [3]) [nM] | Ki (DDR1 [4]) [nM]
Cc1n[nH]c2ncc(CN3CCc4ccc(C(=O)Nc5ccc(CN(C)C)c(C(F)(F)F)c5)cc43)cc12 [Example 69, N-(4-((dimethylamino)methyl)-3-(trifluoromethyl)phenyl)-1-((3-methyl-1H-pyrazolo[3,4-b]pyridin-5-yl)methyl)indoline-6-carboxamide] | < 25 | < 25 | < 25 | < 25
CC1CN(Cc2cnc3[nH]ncc3c2)c2cc(C(=O)Nc3cccc(C(F)(F)F)c3)ccc21 (single isomer, unassigned) [Example 34, 1-((1H-pyrazolo[3,4-b]pyridin-5-yl)methyl)-3-methyl-N-(3-(trifluoromethyl)phenyl)indoline-6-carboxamide] | 25 to 50 | < 25 | < 25 | < 25
Cc1cn(-c2cc(NC(=O)c3ccc4c(c3)N(C(=O)c3cnc5[nH]ncc5c3)CC4C)cc(C(F)(F)F)c2)cn1 (centres unmarked) [Example 28, 3-methyl-N-(3-(4-methyl-1H-imidazol-1-yl)-5-(trifluoromethyl)phenyl)-1-(1H-pyrazolo[3,4-b]pyridine-5-carbonyl)indoline-6-carboxamide] | 25 to 50 | 25 to 50 | < 25 | < 25
Cc1cn(-c2cc(NC(=O)c3ccc4c(c3)N(Cc3cnc5cnccn35)CC4C)cc(C(F)(F)F)c2)cn1 (single isomer, unassigned) [Example 27, 1-(imidazo[1,2-a]pyrazin-3-ylmethyl)-3-methyl-N-(3-(4-methyl-1H-imidazol-1-yl)-5-(trifluoromethyl)phenyl)indoline-6-carboxamide] | < 25 | < 25 | < 25 | < 25
Cc1cn(-c2cc(NC(=O)c3ccc4c(c3)N(Cc3cnc5ccccn35)CC4)cc(C(F)(F)F)c2)cn1 [Example 1, 1-(imidazo[1,2-a]pyridin-3-ylmethyl)-N-(3-(4-methyl-1H-imidazol-1-yl)-5-(trifluoromethyl)phenyl)indoline-6-carboxamide] | 50 to 80 | < 25 | < 25 | < 25
Cc1cn(-c2cc(NC(=O)c3ccc4c(c3)N(Cc3cnc5[nH]ccc5c3)CC4)cc(C(F)(F)F)c2)cn1 [Example 2, 1-((1H-pyrrolo[2,3-b]pyridin-5-yl)methyl)-N-(3-(4-methyl-1H-imidazol-1-yl)-5-(trifluoromethyl)phenyl)indoline-6-carboxamide] | < 25 | < 25 | < 25 | < 25
Cc1cn(-c2cc(C(=O)Nc3ccc4c(c3)N(Cc3cnc5cnccn35)CC4)cc(C(F)(F)F)c2)cn1 [Example 22, N-(1-(imidazo[1,2-a]pyrazin-3-ylmethyl)indolin-6-yl)-3-(4-methyl-1H-imidazol-1-yl)-5-(trifluoromethyl)benzamide] | 25 to 50 | < 25 | < 25 | < 25
CC(C)(c1cc(NC(=O)c2ccc3c(c2)N(Cc2cnc4[nH]ncc4c2)CC3)no1)C(F)(F)F [Example 36, 1-((1H-pyrazolo[3,4-b]pyridin-5-yl)methyl)-N-(5-(1,1,1-trifluoro-2-methylpropan-2-yl)isoxazol-3-yl)indoline-6-carboxamide] | 50 to 80 | < 25 | < 25 | < 25
CN1CCN(Cc2cc(NC(=O)c3ccc4c(c3)N(Cc3cnc5[nH]ccc5c3)CC4)cc(C(F)(F)F)c2)CC1 [Example 9, 1-((1H-pyrrolo[2,3-b]pyridin-5-yl)methyl)-N-(3-((4-methylpiperazin-1-yl)methyl)-5-(trifluoromethyl)phenyl)indoline-6-carboxamide] | < 25 | < 25 | < 25 | < 25
O=C(Nc1cccc(OC(F)(F)F)c1)c1ccc2c(c1)N(Cc1cnc3[nH]ncc3c1)CC2 [Example 37, 1-((1H-pyrazolo[3,4-b]pyridin-5-yl)methyl)-N-(3-(trifluoromethoxy)phenyl)indoline-6-carboxamide] | < 25 | < 25 | < 25 | < 25
CC1CN(Cc2cnc3cnccn23)c2cc(C(=O)Nc3cccc(C(F)(F)F)c3)ccc21 (centres unmarked) [Example 31, 1-(imidazo[1,2-a]pyrazin-3-ylmethyl)-3-methyl-N-(3-(trifluoromethyl)phenyl)indoline-6-carboxamide] | 50 to 80 | < 25 | < 25 | < 25
Cc1n[nH]c2ncc(CN3CCc4ccc(C(=O)Nc5cc(C(C)(C)C)no5)cc43)cc12 [Example 80, N-(3-(tert-butyl)isoxazol-5-yl)-1-((3-methyl-1H-pyrazolo[3,4-b]pyridin-5-yl)methyl)indoline-6-carboxamide] | < 25 | < 25 | < 25 | < 25
Cc1cn(-c2cc(NC(=O)c3ccc4c(c3)N(Cc3cnc5cnccn35)CC4)cc(C(F)(F)F)c2)cn1 [Example 3, 1-(imidazo[1,2-a]pyrazin-3-ylmethyl)-N-(3-(4-methyl-1H-imidazol-1-yl)-5-(trifluoromethyl)phenyl)indoline-6-carboxamide] | 50 to 80 | < 25 | < 25 | < 25
O=C(Nc1cc(F)cc(C(F)(F)F)c1)c1ccc2c(c1)N(Cc1cnc3ccccn13)CC2 [Example 59, N-(3-fluoro-5-(trifluoromethyl)phenyl)-1-(imidazo[1,2-a]pyridin-3-ylmethyl)indoline-6-carboxamide] | 50 to 80 | < 25 | < 25 | < 25
